Measurements published in ChEMBL document CHEMBL6087447, “Impact of Linker Composition on VHL PROTAC Cell Permeability” (J Med Chem, 2025).

Assay: Permeability of the compound in PBS buffer at pH 7.4 incubated for 16 hrs by LC-MS/MS based PAMPA assay
Format: ADME
Details: read-out: permeability

Row | Papp at 16 h | Structure (SMILES)
1 | 7.56 ×10⁻⁶ cm/s | Cc1ncsc1-c1ccc(CNC(=O)[C@@H]2C[C@@H](O)CN2C(=O)[C@@H](NC(=O)Cc2ccc(OCCOc3cnc4c(C5CCN(C(=O)c6ccc(OC(F)(F)F)cc6)CC5)ncnc4c3)cc2)C(C)(C)C)cc1
2 | 6.21 ×10⁻⁶ cm/s | Cc1ncsc1-c1ccc(CNC(=O)[C@@H]2C[C@@H](O)CN2C(=O)[C@@H](NC(=O)CCOCCNC(=O)COc2cnc3c(C4CCN(C(=O)c5ccc(OC(F)(F)F)cc5)CC4)ncnc3c2)C(C)(C)C)cc1
3 | 6.9 ×10⁻⁶ cm/s | Cc1ncsc1-c1ccc(CNC(=O)[C@@H]2C[C@@H](O)CN2C(=O)[C@@H](NC(=O)CN2CCC(CCCOc3cnc4c(C5CCN(C(=O)c6ccc(OC(F)(F)F)cc6)CC5)ncnc4c3)CC2)C(C)(C)C)cc1
4 | 8.29 ×10⁻⁶ cm/s | Cc1ncsc1-c1ccc(CNC(=O)[C@@H]2C[C@@H](O)CN2C(=O)[C@@H](NC(=O)CCCCCCCCOc2cnc3c(C4CCN(C(=O)c5ccc(OC(F)(F)F)cc5)CC4)ncnc3c2)C(C)(C)C)cc1

Continued, compound first:

Row | Structure (SMILES) | Papp at 16 h
5 | Cc1ncsc1-c1ccc(CNC(=O)[C@@H]2C[C@@H](O)CN2C(=O)[C@@H](NC(=O)COCCOCCNC(=O)COc2cnc3c(C4CCN(C(=O)c5ccc(OC(F)(F)F)cc5)CC4)ncnc3c2)C(C)(C)C)cc1 | 6.3 ×10⁻⁶ cm/s
6 | Cc1ncsc1-c1ccc(CNC(=O)[C@@H]2C[C@@H](O)CN2C(=O)[C@@H](NC(=O)CN(C)CCCCCCOc2cnc3c(C4CCN(C(=O)c5ccc(OC(F)(F)F)cc5)CC4)ncnc3c2)C(C)(C)C)cc1 | 6.67 ×10⁻⁶ cm/s
7 | Cc1ncsc1-c1ccc(CNC(=O)[C@@H]2C[C@@H](O)CN2C(=O)[C@@H](NC(=O)CCOCCOCCOc2cnc3c(C4CCN(C(=O)c5ccc(OC(F)(F)F)cc5)CC4)ncnc3c2)C(C)(C)C)cc1 | 5.42 ×10⁻⁶ cm/s
8 | Cc1ncsc1-c1ccc(CNC(=O)[C@@H]2C[C@@H](O)CN2C(=O)[C@@H](NC(=O)Cc2ccc(OCCOc3cnc4c(C5CCN(C(=O)c6ccc(OC(F)(F)F)cc6)CC5)ncnc4c3)cn2)C(C)(C)C)cc1 | 7.28 ×10⁻⁶ cm/s
9 | Cc1ncsc1-c1ccc(CNC(=O)[C@@H]2C[C@@H](O)CN2C(=O)[C@@H](NC(=O)COCc2cn(CCOc3cnc4c(C5CCN(C(=O)c6ccc(OC(F)(F)F)cc6)CC5)ncnc4c3)nn2)C(C)(C)C)cc1 | 7.94 ×10⁻⁶ cm/s
